# Data reported in patent publication US10494402B2, “Peptides that stimulate subcutaneous adipogenesis” (The Regents of the University of California, priority 2012, dated 2019).
# Entries after “also recorded” stand apart in the source; their conditions may differ.
# Columns and labels:
# [1] = tested on: human papillary fibroblasts (HPF); assay: Transdifferentiation of primary human dermal fibroblasts, papillary; type: cell-based; settings: 5 μg/ml; peptide replaced insulin
# Method: (§1) The B peptide and the KSEVSK 6-mer were also tested for their adipogenic effect on primary human dermal fibroblasts from the upper (papillary) and lower (reticular) dermal layers. The primary human fibroblasts were obtained from dermatome sections of biopsies from human volunteers. Cells were cultured and exposed to adipogenic medium. In these experiments, the B peptide and the KSEVSK 6-mer replaced insulin as the adipogenic stimulus. The peptides were used at a concentration of 5 μg/ml. Adipogenesis was assessed by Oil Red O staining. […] White arrows show fat droplets.
# [2] = tested on: human subcutaneous pre-adipocytes; assay: Differentiation of human subcutaneous pre-adipocytes; type: cell-based; settings: for adipogenesis, Oil Red O staining, absence of both insulin and PPARγ agonist: FIGS. 23, 24; for adipogenesis, extracted Oil Red O: experimental cocktail lacked PPARγ agonist and insulin
# Excerpt: As noted above, this adipogenic cocktail contained pantothenate, dexamethasone, isobutylmethylxanthine (IBMX), human insulin and a PPARγ agonist. For these experiments, the following conditions were used as negative controls: (1) Preadipocyte Medium only; (2) the adipogenic cocktail without PPARγ agonist (PPARγ-); and (3) the adipogenic cocktail without PPARγ agonist or human insulin.
# The positive control for FIG. 21 was the complete adipogenic medium containing both the PPARγ agonist and insulin: The experimental cocktail contained the B peptide or the KSEVSK 6-mer, but lacked PPARγ agonist and insulin. Adipogenesis levels were quantified by measuring extracted Oil Red 0.
# The following conditions were used as negative controls: (Ctr no-γ)=monolayers cultured in adipogenic cocktail but without PPARγ agonist, (Ctr no-γ, no-Ins)=monolayers cultured in adipogenic cocktail but without PPARγ agonist or human insulin. To test the adipogenic activity of the KSEVSK 6-mer and B peptides, the human pre-adipocytes were exposed to the above negative controls plus either the KSEVSK 6-mer or the B peptide at concentrations of 5 μg/ml and 20 μg/ml. Statistical analysis were performed compared to negative control. Data presented as mean±standard error (n=3)
# Rat skin = assay: Rat dermal skin model of adipogenesis (injection into dermis); type: in vivo
# Method: Examples of the adipogenic effects of RHAMM antagonists (peptide B (SEQ ID NO: 2), peptide P15-1 (SEQ ID NO. 1), and the antibody to peptide B) are summarized in Table 1. Peptide P15-1, peptide B, and a RHAMM antibody were assayed for their effects on pre-adipocyte stem cells in culture and when injected into the dermis of aged rats. Reagents were ranked on a scale of 0-5 with 5 representing the highest possible score and a completely filled in Harvey ball. “2D” refers to two-dimensional tissue culture.
# In FIGS. 5A and 5B, data are shown as a ratio of the area (“surface area”) of fat pads expressed as a ratio of experimental/control values.
# The 6-mer (KSEVSK; SEQ ID NO: 3) was tested for adipogenic effect in rat skin in vivo. The results of this testing are shown in the photographs in FIG. 10.
# [3] = tested on: human adipose-derived stem cells (h-ADSCs); assay: Differentiation of human adipose-derived stem cells (h-ADSCs); type: cell-based; settings: for adipogenesis, absorbance of extracted Oil Red O: 5 μg/ml in adipogenic cocktail in the absence of insulin and PPARγ agonist, two weeks; for adipogenesis (micrographs) in the absence of PPARγ agonist / adipogenesis (micrographs) in the presence of PPARγ agonist: B peptide 5 μg/ml, 6-mer 5 μg/ml or 20 μg/ml
# Excerpt: The Adipocyte Differentiation Medium contained DMEM/Ham's F-12 (1:1 v/v), HEPES pH 7.4, fetal bovine serum, biotin, penicillin, streptomcyin, amphotericin B, pantothenate, human insulin, dexamethasone, isobutylmethylxanthine (IBMX) and a PPARγ agonist. This positive stimulus was used as the positive control. […] The upper right panel and the lower left panel of FIG. 14 provide two different fields of view of the h-ASDCs exposed to the adipogenic cocktail at 4× magnification.
# Monolayers that were maintained in Preadipocyte Medium only (ZenBio catalog no. PM-1, containing DMEM/Ham's F-12 (1:1 v/v), HEPES 7.4, fetal bovine serum, penicillin, streptomcyin, and amphotericin B) or monolayers that were exposed to the adipogenic cocktail without insulin and PPARγ agonist were both used as negative controls. […] The negative controls shown in FIG. 15 were exposed to Preadipocyte Medium only. […] The adipogenic peptides (peptide B and the KSEVSK 6-mer) were mixed into adipogenic cocktail that lacked the PPARγ agonist and/or insulin and used as the experimental condition.
# To quantify the adipogenic activity of the KSEVSK 6-mer (SEQ ID NO: 3) and the B peptide (SEQ ID NO: 2), h-ADSCs were exposed to 5 μg/ml of these peptides in the adipogenic cocktail in the absence of insulin and PPARγ agonist). The experiment was terminated two weeks after the addition of adipogenic mixtures. At this time, photographs of monolayers were taken and the lipid droplet accumulation was quantified by measuring the absorbance of extracted Oil Red 0. […] The peptides stimulated adipogenesis to a similar extent when the PPARγ agonist alone or both the PPARγ agonist and insulin were deleted from the adipogenic cocktail (not shown).
# In further studies using h-ADSCs, two different protocols were used. In the first of these protocols, h-ADSCs were exposed to the adipogenic cocktail plus the KSEVSK 6-mer (SEQ ID NO: 3) or B peptide (SEQ ID NO: 2) at concentrations of 5 μg/ml or 20 μg/ml. […] In the second of these protocols, h-ADSCs were exposed to adipogenic cocktail in which the PPARγ agonist was replaced with either the KSEVSK 6-mer or the B peptide at concentrations of 5 μg/ml or 20 μg/ml. […] Statistical analysis were performed compared to negative control. Data presented as mean±standard error (n=3).
# [4] = tested on: human reticular fibroblasts (HRF); assay: Transdifferentiation of primary human dermal fibroblasts, reticular; type: cell-based; settings: 5 μg/ml, peptide replaced insulin
# Method: as §1
Substance,"transdifferentiation into adipocytes, Oil Red O staining [1]","adipogenesis, Oil Red O staining, absence of both insulin and PPARγ agonist [2]","adipogenesis, extracted Oil Red O [2]",fat accumulation (fat pads) (Rat skin; 25-50 μg/injection site),"animals in which reagent was most effective (fat pad surface area, experimental/control) (Rat skin; FIGS. 5A and 5B)","adipogenic potential, In vivo Rat skin (Rat skin; injected into the dermis of aged rats, scale of 0-5, 5 highest)","adipogenesis, absorbance of extracted Oil Red O [3]",adipogenesis (micrographs) in the absence of PPARγ agonist [3],adipogenesis (micrographs) in the presence of PPARγ agonist [3],"transdifferentiation into adipocytes, Oil Red O staining ([4]; listed as B peptide)","adipogenesis, Oil Red O staining, absence of PPARγ agonist ([2]; FIG. 22)",fat pad induction in rat skin in vivo (Rat skin; FIG. 10),"adipogenesis (lipid droplets) compared with positive control ([3]; two weeks after initiation, peptide in cocktail lacking PPARγ agonist and/or insulin)","transdifferentiation into adipocytes, Oil Red O staining [4]"
KLKDENSQLKSEVSK [peptide B],had no effect,stimulates adipogenesis,significantly (p<0.05) increased adipogenesis above the negative control levels,induced significant fat accumulation,most effective in old females,5,strongly promoted adipogenesis compared to the negative control (p<0.05),underwent adipogenesis,underwent adipogenesis,stimulated the transdifferentiation; also recorded: stimulated the trans-differentiation,–,–,–,–
KSEVSK [KSEVSK 6-mer],had no effect,stimulates adipogenesis,significantly (p<0.05) increased adipogenesis above the negative control levels,–,–,–,strongly promoted adipogenesis compared to the negative control (p<0.05),underwent adipogenesis,underwent adipogenesis,–,stimulates adipogenesis,"able to induce large fat pads, possibly larger than peptide B",more effective at promoting adipogenesis than the positive control,stimulated the transdifferentiation
